From PubChem BioAssay AID179 (DTP/NCI, 2004)
Where “and” joins values, the source holds several entries; their conditions need not be identical. Equal entries are not always repeated. Calls of active or inactive are those of the source.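 The calls were made as follows: active = compounds giving half or more protection of infected cells from virus-caused growth loss, again on retest; inactive = the rest.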

Tested on: CEM cells HIV-1 protection, formazan growth assay
Assay: NCI AIDS Antiviral Assay
Conditions: for IC50: measured here: growth of uninfected CEM cells
Summary of the method: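 Protection of CEM cells against HIV-1 was scored from cell growth (soluble formazan) across five concentrations, with parallel uninfected cells. Lack of protection may reflect toxicity.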

SMILES	EC50 [µM]	IC50	outcome
CCCCCCCCCCCCCCCCCCC1=C(O)C(=O)C=C(OC)C1=O	> 200	49 µM	
O=C(Nc1ccc(-c2ccco2)oc1=O)c1ccccc1	> 200	> 200 µM	
CC1(C)OCC2OC3(CO)NP(=O)(N(CCCl)CCCl)OC3C2O1 (stereo not drawn)			inactive
Cc1cc(=O)[nH]c(CNC(=O)c2cccc(C(=O)NCc3cc(=O)[nH]c(C)n3)c2)n1	> 617	> 617 µM	
CC(C)=CCc1cc2c(cc1O)OC[C@H]1c3cc4c(cc3O[C@@H]21)OCO4	> 53.7	2.09 µM	
COc1ccc(-c2cc(-c3ccccc3)[nH]c(=O)c2N(C)C)cc1	> 58.9	> 58.9 µM	
COc1cccc2c1CCc1c(-c3ccc(F)cc3)cc(-c3ccc4ccccc4n3)nc1-2	> 200	> 200 µM	
CCOP(=S)(OCC)OC(=O)C(C)SSC (stereo not drawn) (tested in a mixture with another compound)	> 200	95.5 µM	
Cc1ccc(S(=O)(=O)n2cc(/C=C/C#N)c(-c3cn(S(=O)(=O)c4ccc(C)cc4)cc3-c3cn(S(=O)(=O)c4ccc(C)cc4)cc3/C=C/C#N)c2)cc1	> 200	> 200 µM	
CSc1cc(C(=O)Nc2ccc(C3=NCCN3)cc2)ccc1C(=O)Nc1ccc(C2=NCCN2)cc1	> 141	72.4 µM	
c1ccc([P+](CCNCCNCC[P+](c2ccccc2)(c2ccccc2)c2ccccc2)(c2ccccc2)c2ccccc2)cc1	> 355	234 µM	
O=C(Nc1ccc(Cl)c(Cl)c1)Nc1ccc([N+](=O)[O-])cn1	> 200	> 200 µM	
CCOC(=O)C[C@@]12CCCN[C@]1(C)CCc1ccccc12			inactive
c1ccc2[nH]c(CSc3nc4ccccc4[nH]3)nc2c1	> 200	> 200 µM	
CC(=O)OCC1OC(n2c(-c3ccccc3)c(N=Nc3ccc(C)cc3)c(C)c(C#N)c2=S)C(OC(C)=O)C(OC(C)=O)C1OC(C)=O (stereo not drawn)	195	> 200 µM	
Cn1c2c(c3ccccc31)CCN(CCCCN1CCc3c(n(C)c4ccccc34)C1=O)C2	> 40.7	> 40.7 µM	
Cc1cc(O)cc(O)c1C(=O)O[C@]1(C)C(=O)C=C2C=C(/C=C/C(=O)O)OC=C2C1=O			inactive
CCOP(=O)(OCC)/C(C#N)=C/c1cc(OC)ccc1OC	> 398	24 µM	
ClC1=C(Cl)C(Cl)(Cl)SS1	> 200	33.1 µM	
COC(=O)/C=C(C)/C=C/c1c(C)c(C(C)=O)c(C)n1C	> 129	> 129 µM	
O=C(CCc1ccc(O)cc1)NCCCNC(=O)CCc1ccc(O)cc1	> 200	> 200 µM	
C=C1C(=O)OC2/C=C(\C)CC(O)/C=C(/CO)CC(OC(=O)/C(C)=C/C)C12 (stereo not drawn)	> 100	53.7 µM	

SMILES	EC50 [µM]	IC50	outcome
Cc1cc2nc3c(=O)n(C)c(=O)nc-3n(-c3ccc(Cl)cc3)c2cc1C			inactive
C=CCCC[P+](c1ccccc1)(c1ccccc1)c1ccccc1	> 200	1.15 µM	
Cc1c([C@H](C)[C@@H]2NC[C@@H](C)C[C@H]2O)ccc2c1C[C@H]1[C@H]2CC=C2C[C@@H](O)CC[C@@]21C	> 1.82	> 1.82 µM	
COc1cc(C2c3cc4c(cc3OC(N3CCOCC3)C2C)OCO4)cc(OC)c1OC (stereo not drawn)	> 200	1.86 µM	
NC1CSSCC(C(=O)O)NC1=O (stereo not drawn)	> 61.7	> 61.7 µM	
Cc1nc2c(o1)C(=Nc1ccc(I)cc1)c1ccccc1C2=Nc1ccc(I)cc1			inactive
O=C(Nc1ncnc2c1ncn2C1CC(OC(=O)c2ccc([N+](=O)[O-])cc2)C(COC(=O)c2ccc([N+](=O)[O-])cc2)O1)c1ccccc1 (stereo not drawn)			inactive
O=C(NC(=Nc1ccccc1)SCSC(=Nc1ccccc1)NC(=O)c1ccc(F)cc1)c1ccc(F)cc1	> 200	> 200 µM	
O=[N+]([O-])c1ccc2c(c1)Sc1ccccc1N2	> 200	60.3 µM	
c1ccc(NC[Si]23OCCN(CCO2)CCO3)cc1			inactive
COc1cc(OC)c2c(c1)OC(=O)C(C(C)=O)C2 (stereo not drawn)	> 200	> 200 µM	
Cc1cccc(/C=C2\CCCCCC2=O)c1	> 200	53.7 µM	
c1ccc2c(c1)OCOc1ccccc1OCO2			inactive
COc1cc(C2C(O)N(C)C(=O)C23CCCN3C)c(Br)cc1Br (stereo not drawn)			inactive
CCC1(CC)O[C@H]([C@@H](O)CCc2ccccc2O)[C@@H]([C@@H](O)CCc2ccccc2O)O1	> 200	33.1 µM	
CCOc1cc[n+](C(=C=[N-])C#N)cc1			inactive
O=C1C=CC(=O)C2C3c4ccccc4C(c4ccccc43)C12 (stereo not drawn)	> 34.7	> 34.7 µM	
Oc1ccc(/C=C\c2cnccn2)cc1	> 251	33.9 µM	
Cc1cc2c(O)c(c1)CN(Cc1ccccc1)Cc1cc(C)cc(c1O)CN(Cc1ccccc1)Cc1cc(C)cc(c1O)CN(Cc1ccccc1)C2	> 50.1	> 50.1 µM	
CN(C)CC1CCCC/C1=N/O (stereo not drawn)			inactive
CC1=NNC(=O)C1C1CC(c2c[nH]c3ccccc23)=NN(c2ccccc2)C1=O (stereo not drawn)	> 200	33.9 µM	
C#Cc1c(C)c(/C=C/C(C)=C/C=C/C(C)=C/C(=O)OC)n(C)c1C	> 22.4	> 22.4 µM	

SMILES	EC50 [µM]	IC50	outcome
O=C(Nc1ccc(I)cc1)c1ccccc1[Se][Se]c1ccccc1C(=O)Nc1ccc(I)cc1	> 4.68	> 4.68 µM	
COC1CC(C)(N)C(O)C(C)O1 (stereo not drawn)	> 200	> 200 µM	
O=C(CN1CCCCC1)CC(O)(C(F)(F)F)C(F)(F)F	> 200	66.1 µM	
O=C(O)C1CCCN1C(=O)c1ccccn1 (stereo not drawn)	> 200	> 200 µM	
COC(=O)C1(Cc2ccccc2)Cc2ccc3c(c2C1=O)CCC3 (stereo not drawn)	> 200	> 200 µM	
CCCCCC(/C=C/c1ncccc1OCCCCCC(=O)O)=N\NC1=NCCN1	> 44.7	> 44.7 µM	
COc1ccc(C(=C2C(=O)OC(=O)C2=C(C)C)c2ccc(OC)cc2)cc1	> 200	95.5 µM	
N#CC(C#N)=Cc1ccccc1F	> 102	17.4 µM	
CC(=O)OC1(C#N)CC2OC1C1C2N1C(=O)OC(C)(C)C (stereo not drawn)	> 427	> 427 µM	
c1ccc2[nH]c(C3=NCCS3)nc2c1	> 1230	240 µM	
CC(=O)OCC1OC(Nn2c(=O)[nH]c3ccccc3c2=O)C(OC(C)=O)C(OC(C)=O)C1OC(C)=O (stereo not drawn)	> 158	117 µM	
CC(=O)[O-].N.N.N.N.[Co+3].[O-][Cl+3]([O-])([O-])[O-].[OH3+]			inactive
NC(=O)c1nnn(Cc2cc(Cl)c(C(=O)c3ccc(Cl)cc3)c(Cl)c2)c1N	> 200		
CC1=NN(c2ccccc2)C(=O)/C1=C\n1c(=S)[nH]c2ccccc21	> 200	87.1 µM	
Nc1[nH]c(=S)[nH]c(=O)c1N=O	> 200	> 200 µM	
Cc1cc(S(=O)(=O)Nc2nc(Nc3ccccc3)nn2C)c(S)cc1Cl	> 200	166 µM	
O=S1[C@H](c2ccccc2)c2c(-c3ccccc3)sc(-c3ccccc3)c2[C@@H]1c1ccccc1 (stereo partly drawn)			inactive
COc1cc(Nc2ccc3c(c2)CCC3)nc(OC)n1	> 200	31.6 µM	
C(/C=C/c1ccccc1)=Nc1ccc(SSc2ccc(N=C/C=C/c3ccccc3)cc2)cc1	> 200	16.6 µM	
O=C1OC(=O)c2cc3c(cc21)C(=O)O/C3=C\c1ccccc1			inactive
Cc1ccc(C)n1N1CCOCC1	> 200	115 µM	
O=C(OC(CC[P+](c1ccccc1)(c1ccccc1)c1ccccc1)(C(=O)c1ccccc1)c1ccccc1)c1ccccc1 (stereo not drawn)	> 200	1.07 µM	

SMILES	EC50 [µM]	IC50	outcome
Cc1ccc(Cc2n[nH]c(=O)[nH]2)cc1	> 200	> 200 µM	
O=C(CC(=O)c1ccccc1O)c1ccccc1	> 30.2	> 30.2 µM	
CC1(C)COC2(C)N(c3ccccc3)C(=O)ON12 (stereo not drawn)	> 200	> 200 µM	
c1ccc(P2CCc3[nH]c4ccccc4c3C2)cc1 (stereo not drawn)	> 38	> 38 µM	
CCOC(=O)[C@H](O)[C@@H](O)C(=O)NCc1ccc(C(=O)c2ccccc2)cc1	> 200	> 200 µM	
CCOC(=O)c1ccc(-c2onc(C)c2Br)[nH]1	> 200	39.8 µM	
CCSc1nnc(CSc2nc(-c3ccccc3)c(-c3ccccc3)[nH]2)n1-c1ccccc1	> 21.4	> 21.4 µM	
CC(C)(Oc1ccc2c(=O)cc(-c3ccccc3)oc2c1)C(=O)N1CCN(c2ccccc2)CC1	> 200	20.9 µM	
CSc1nn(C)cc2nc(C)nc1-2	> 200	> 200 µM	
CC(C)(C)COC(=O)C(C)(C)NC(=O)C(CC(=O)OCc1ccccc1)NC(=O)OCc1ccccc1 (stereo not drawn)	> 200	19.1 µM	
CCC(c1ccc(OC)cc1)C1NC(=S)NC1=O (stereo not drawn)	> 200	31.6 µM	
c1ccc(-c2cc(-c3cc(-c4ccccc4)n(-c4ccccc4)n3)nn2-c2ccccc2)cc1	> 100	> 100 µM	
CC1(C)OCC(C2OC3OC(C)(C)OC3C2=O)O1 (stereo not drawn)			inactive
COC1=CC2C3Cc4c(-c5cc(OC)c(O)c6c5CC5C7C=C(OC)C(=O)CC67CCN5C)cc(OC)c(O)c4C2(CCN3C)CC1=O (stereo not drawn)	> 200	> 200 µM and 132 µM and 117 µM	
O=C(C(=O)c1cc(-c2ccccc2)nc2ccc3ccccc3c12)c1ccccc1	> 200	174 µM	
COc1ccc2nc3cc(Cl)ccc3c(SCC(=O)Nc3ccccc3-c3ccccc3NC(=O)CSc3c4ccc(Cl)cc4nc4ccc(OC)cc34)c2c1	> 8.91	> 8.91 µM	
O=S(Nc1ccccc1)c1ccc(N2CCOCC2)cc1 (stereo not drawn)	> 200	18.2 µM	
COC(=O)c1cn2ccc3ccccc3c2c1C(=O)OC	> 200	> 100 µM	
Oc1[nH]c2ccccc2c1N=NC(=S)NCc1ccccn1	> 2	0.0295 µM	
COc1ccc2nc(NC(=O)C(=O)C(C(=O)c3ccccc3-c3ccccc3)C3OC(=O)c4ccccc43)sc2c1 (stereo not drawn)	> 45.7	25.1 µM	
CC(=O)Nc1ccc(-c2nnc(SCC(=O)Nc3ccccc3Cl)o2)cc1	> 46.8	> 46.8 µM	
